Reference: patent US11066393B2, “Indolin-2-one derivatives” (Hoffmann-La Roche Inc., priority 2015, dated 2021)

Assays:
[1] = system: L-687,414-induced hyperlocomotion; experiment: Reduction of L-687,414-induced hyperlocomotion; format: in vivo, mouse; conditions: mice, dose 30 mg/kg ip, 15 min before s.c. 50 mg/kg L-687,414
Excerpt: The authors described that hyperlocomotion induced by L-687,414 was inhibited by a series of known antipsychotic drugs. […] These findings predict antipsychotic activity for the present compounds, making them useful for the treatment of positive (psychosis) and negative symptoms of schizophrenia, substance abuse, alcohol and drug addiction, obsessive-compulsive disorders, cognitive impairment, bipolar disorders, mood disorders, major depression, resistant depression, anxiety disorders, Alzheimer's disease, autism, Parkinson's disease, chronic pain, borderline personality disorder, sleep disturbances, chronic fatigue syndrome, stiffness, antiinflammatory effects in arthritis and balance problems, epilepsy and neurodevelopmental disorders with co-morbid epilepsy.
The described compounds of formula I reduce L-687,414-induced hyperlocomotion. This was assessed by using a computerized Digiscan 16 Animal Activity Monitoring System (Omnitech Electronics, Columbus, Ohio) to quantify locomotor activity. Animals were kept under a 12 h light/dark cycle and experiments were performed during the light period. Each activity monitoring chamber consisted of a Plexiglas box (41×41×28 cm; W×L×H) with sawdust bedding on the floor surrounded by invisible horizontal and vertical infrared sensor beams. The test boxes were divided by a Plexiglas cross providing each mouse with 20×20 cm of moving space. Cages were connected to a Digiscan Analyzer linked to a computer that constantly collected the beam status information. Records of photocell beam interruptions for individual animals were taken every 5 min over the duration of the experimental session and the sum of the first 6 periods was used as the final parameter. At least 8 mice were used in each treatment group. Compounds were administered i.p. 15 min before a s.c. injection of 50 mg/kg of L-687,414. Mice were then transferred from their home cage to the recording chambers for a 15-min habituation phase allowing free exploration of the new environment. Horizontal activity was then recorded for a 30-min time period. The % inhibition of L-687,414-induced hyperlocomotion was calculated according to the equation: ((Veh+L-687,414 horizontal activity−drug+L-687,414 horizontal activity)/Veh+L-687,414 horizontal activity)×100
ID50 values, defined as doses of each compound producing 50% inhibition of L-687,414-induced hyperlocomotion, were calculated by linear regression analysis of a dose-response data using an Excel-based computer-fitting program. As data was not presupposed to be normally distributed, groups treated with test compounds were statistically compared with the control (vehicle-treated) group using one-tailed Mann Whitney U tests. In statistics, the Mann-Whitney U test (also called the Mann-Whitney-Wilcoxon (MWW) or Wilcoxon rank-sum test) is a non-parametric statistical hypothesis test for assessing whether one of two samples of independent observations tends to have larger values than the other. It is one of the most well-known non-parametric significance tests. […] P values given in table 1 are one-tailed since only decreases in locomotion were expected and tested for (Mann, H. B., Whitney, D. R. (1947), “On a Test of Whether one of Two Random Variables is Stochastically Larger than the Other”, Annals of Mathematical Statistics, 18 (1), 50-60).

mouse ENT-1 transporter = target: T1, mouse ENT-1 transporter (Mus musculus, UniProt Q9JIM1); experiment: Adenosine transport activity (ENT1, [3H]-adenosine uptake); format: cell-based; conditions: stable cells expressing mouse ENT-1; [2,8-3H]-adenosine 6 nM, 20 min
T1 construct: expressed in transfected cells
T1 sequence (Q9JIM1 1-460): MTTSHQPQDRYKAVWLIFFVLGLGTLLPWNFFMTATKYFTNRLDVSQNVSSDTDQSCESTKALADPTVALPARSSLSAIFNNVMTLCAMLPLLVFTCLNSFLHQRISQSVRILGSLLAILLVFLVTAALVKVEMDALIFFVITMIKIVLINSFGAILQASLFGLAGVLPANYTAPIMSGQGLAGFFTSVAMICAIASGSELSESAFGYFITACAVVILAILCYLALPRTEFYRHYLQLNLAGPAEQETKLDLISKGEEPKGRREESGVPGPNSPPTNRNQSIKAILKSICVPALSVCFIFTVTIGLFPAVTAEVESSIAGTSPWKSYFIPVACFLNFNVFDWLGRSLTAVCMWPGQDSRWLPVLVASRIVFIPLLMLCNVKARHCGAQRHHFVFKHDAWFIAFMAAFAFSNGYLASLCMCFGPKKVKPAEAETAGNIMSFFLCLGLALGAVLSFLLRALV
Experimental: To measure adenosine transport activity of ENT-1 mammalian cells, stable cells expressing the mouse ENT-1 transporter were plated on day 1 in 96-well culture plates at the density of 60,000 cells/well, in complete DMEM/F12 medium supplemented with glutamax, 10% FBS and 10 μg/ml puromycin. On day 2, the medium was aspirated and the cells were washed twice with uptake buffer (10 mM Hepes-Tris, pH 7.4 containing 150 mM NaCl, 1 mM CaCl2, 2.5 mM KCl, 2.5 mM MgSO4, 10 mM D-glucose) (UB). For inhibition experiments, cells were then incubated at RT with various concentrations of compounds with 1% DMSO final. Non-specific uptake was defined in the presence of 10 μM S-(4-Nitrobenzyl)-6-thioinosine (NBTI, Sigma Cat #N2255).
A solution containing [2,8-^3H]-adenosine 6 nM (40 Ci/mmol, American Radiolabeled chemicals Inc, Cat #ART 0287A) was then immediately added to the wells. The plates were then incubated for 20 min with gentle shaking and the reaction was stopped by aspiration of the mixture and washing (three times) with ice-cold UB. The cells were lysed by the addition of scintillation liquid, shaken 3 hours and the radioactivity in the cells was estimated using a microplates scintillation counter (TopCount NXT, Packard).

Structure (SMILES) | Inhibition, ip [%] of L-687,414-induced hyperlocomotion [1] | IC50 (mouse ENT-1 transporter)
CNC(=O)c1cncc(N2C(=O)C(C)(C)c3ccc(-c4cnc(C)nc4)cc32)n1 [Example 2, 6-(3,3-Dimethyl-6-(2-methylpyrimidin-5-yl)-2-oxoindolin-1-yl)-N-methylpyrazine-2-carboxamide] | 97.5% | 28 nM
COCCNC(=O)c1cncc(N2C(=O)C(C)(C)c3ccc(-c4cnc(C)nc4)cc32)n1 [Example 7, 6-(3,3-Dimethyl-6-(2-methylpyrimidin-5-yl)-2-oxoindolin-1-yl)-N-(2-methoxyethyl)pyrazine-2-carboxamide] | 88.1% | 88.4 nM
Cc1ncc(-c2ccc3c(c2)N(c2cnc(C(=O)N(C)C)cn2)C(=O)C3(C)C)cn1 [Example 11, 5-[3,3-Dimethyl-6-(2-methylpyrimidin-5-yl)-2-oxoindol-1-yl]-dimethylpyrazine-2-carboxamide] | 98.4% | 123 nM
CNC(=O)c1ccnc(N2C(=O)C(C)(C)c3ccc(-c4cnc(C)nc4)cc32)n1 [Example 16, 2-(3,3-Dimethyl-6-(2-methylpyrimidin-5-yl)-2-oxoindolin-1-yl)-N-methylpyrimidine-4-carboxamide] | 94.6% | 241 nM
CNC(=O)c1cccc(N2C(=O)C(C)(C)c3ccc(-c4cnc(C)nc4)cc32)n1 [Example 22, 6-(3,3-Dimethyl-6-(2-methylpyrimidin-5-yl)-2-oxoindolin-1-yl)-N-methylpicolinamide] | 95.6% | 8.5 nM
Cc1ncc(-c2ccc3c(c2)N(c2cccc(C(=O)NC4CC4)n2)C(=O)C3(C)C)cn1 [Example 24, N-Cyclopropyl-6-(3,3-dimethyl-6-(2-methylpyrimidin-5-yl)-2-oxoindolin-1-yl)picolinamide] | 99.1% | 45.8 nM
Cc1ncc(-c2ccc3c(c2)N(c2ccc(C(=O)N(C)C)cn2)C(=O)C3(C)C)cn1 [Example 29, 6-(3,3-Dimethyl-6-(2-methylpyrimidin-5-yl)-2-oxoindolin-1-yl)-N,N-dimethylnicotinamide] | 93% | 585 nM
